According to ChEMBL document CHEMBL2163289, “The discovery of N-[5-(4-bromophenyl)-6-[2-[(5-bromo-2-pyrimidinyl)oxy]ethoxy]-4-pyrimidinyl]-N'-propylsulfamide (Macitentan), an orally active, potent dual endothelin receptor antagonist” (J Med Chem, 2012):
The source made the active and inactive calls. The calls are words filed in the database; no cut-off is given here. Where a SMILES comes first, the peptide text is derived from it. [ ]: non-standard residue; d: D form.

Columns and labels:
Endothelin-1 receptor = biological target: T1, Endothelin-1 receptor (Homo sapiens, UniProt P25101); assay: Displacement of [I125]ET1 from recombinant ETA receptor expressed in CHO cells after 2 hrs by TopCount analysis; format: cell-based
T1 sequence (P25101 whole entry): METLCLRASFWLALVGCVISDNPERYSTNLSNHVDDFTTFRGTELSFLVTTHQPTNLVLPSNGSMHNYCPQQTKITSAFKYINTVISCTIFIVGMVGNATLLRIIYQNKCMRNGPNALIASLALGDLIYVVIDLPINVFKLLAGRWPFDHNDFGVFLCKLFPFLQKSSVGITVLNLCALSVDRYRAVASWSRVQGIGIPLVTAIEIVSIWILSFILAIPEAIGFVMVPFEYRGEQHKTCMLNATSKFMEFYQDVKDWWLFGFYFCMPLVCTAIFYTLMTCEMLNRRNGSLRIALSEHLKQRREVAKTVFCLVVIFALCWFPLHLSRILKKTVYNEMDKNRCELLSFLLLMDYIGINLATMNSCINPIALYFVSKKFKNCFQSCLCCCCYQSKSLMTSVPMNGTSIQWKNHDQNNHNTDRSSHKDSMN

Rattus norvegicus [1] = assay: Antihypertensive activity in telemeterized hypertensive Dahl salt-sensitive rat assessed as reduction in mean arterial blood pressure at 3 mg/kg, po measured over 6 hrs; format: functional, Artery
Rattus norvegicus [2] = assay: Cmax in Wistar rat assessed as N-[5-(4-Bromophenyl)-6-[2-[(5-bromo-2-pyrimidinyl)oxy]ethoxy]-4-pyrimidinyl]-sulfamide level at 10 mg/kg, po at 6 hrs; format: ADME, organism-based; parameters: dose 10 mg/kg, route oral; settings: in vivo
Rattus norvegicus [3] = assay: Effect on heart rate in telemeterized hypertensive Dahl salt-sensitive rat at 3 mg/kg, po

Row | IC50 (Endothelin-1 receptor) [nM] | Compound | further results
1 | 2.2 | COc1ccccc1Oc1c(NS(=O)(=O)CCc2ccccc2)nc(-c2ncccn2)nc1OCCOc1ncc(Br)cn1 | –
2 | 1.2 | CCCNS(=O)(=O)Nc1ncnc(OCCOc2ncc(Br)cn2)c1-c1ccc(Cl)cc1 | –
3 | 17.8 | COc1ccccc1Oc1c(NS(=O)(=O)CCc2ccccc2)nc(-c2ncccn2)nc1OCCOc1ncc(C)cn1 | –
4 | 3.4 | COc1ccccc1Oc1c(NS(=O)(=O)NCc2ccccc2)nc(-c2ccncc2)nc1OCCOc1ncc(Br)cn1 | –
5 | 1.7 | CNS(=O)(=O)Nc1ncnc(OCCOc2ncc(Br)cn2)c1-c1ccc(Br)cc1 | Fall in mean arterial blood pressure (Rattus norvegicus [1]): 21 mmHg
6 | 0.4 | CCCNS(=O)(=O)Nc1ncnc(OCCOc2ncc(Br)cn2)c1Oc1cc(OC)ccc1Cl | Fall in mean arterial blood pressure (Rattus norvegicus [1]): 21 mmHg
7 | 3.4 | NS(=O)(=O)Nc1ncnc(OCCOc2ncc(Br)cn2)c1-c1ccc(Br)cc1 [APROCITENTAN] | –
8 | 0.7 | Cc1ccc(-c2c(NS(=O)(=O)NCc3ccccc3)ncnc2OCCOc2ncc(Br)cn2)cc1 | –
9 | 0.3 | CCCCNS(=O)(=O)Nc1ncnc(OCCOc2ncc(Br)cn2)c1-c1ccc(Br)cc1 | Cmax (Rattus norvegicus [2]): 4100 ng/mL; Fall in mean arterial blood pressure (Rattus norvegicus [1]): 16 mmHg
10 | 4530 | COc1ccccc1Oc1c(NS(C)(=O)=O)nc(-c2ncccn2)nc1OCCO | –
11 | 7 | COc1ccccc1Oc1c(NS(=O)(=O)N(C)Cc2ccccc2)nc(-c2ncccn2)nc1OCCOc1ncc(Br)cn1 | –
12 | 187 | COc1ccccc1Oc1c(NS(=O)(=O)N2CCOCC2)nc(-c2ncccn2)nc1OCCOc1ncc(Br)cn1 | –
13 | 4780 | COc1cc(OC)nc(OCCOc2nc(-c3ncccn3)nc(NS(=O)(=O)CCc3ccccc3)c2Oc2ccccc2OC)n1 | –
14 | 1.6 | O=S(=O)(NCc1ccccc1)Nc1ncnc(OCCOc2ncc(Br)cn2)c1-c1ccc(Br)cc1 | Fall in mean arterial blood pressure (Rattus norvegicus [1]): 14 mmHg; Activity (Rattus norvegicus [3]): inactive
15 | 7.7 | COc1ccccc1Oc1c(NS(=O)(=O)CCc2ccccc2)nc(-c2ncccn2)nc1OCCOc1ncc(C2CC2)cn1 | –
16 | 2.1 | COc1ccccc1Oc1c(NS(=O)(=O)NCc2ccccc2)nc(-c2cnccn2)nc1OCCOc1ncc(Br)cn1 | –
17 | 1.1 | CCCCS(=O)(=O)Nc1ncnc(OCCOc2ncc(Br)cn2)c1-c1ccc(Br)cc1 | Fall in mean arterial blood pressure (Rattus norvegicus [1]): 22 mmHg
18 | 3 | COc1ccccc1Oc1c(NS(=O)(=O)CCc2ccccc2)nc(-c2ncccn2)nc1OCCOc1ncc(C(F)(F)F)cn1 | –
19 | 6.9 | COc1ccccc1Oc1c(NS(=O)(=O)NCc2ccccc2)ncnc1OCCOc1ncc(Br)cn1 | –
20 | 10.4 | COc1ccccc1Oc1c(NS(=O)(=O)c2ccccc2)nc(-c2ncccn2)nc1OCCOc1ncc(Br)cn1 | –
21 | 1.9 | CCCNS(=O)(=O)Nc1ncnc(OCCOc2ncc(Br)cn2)c1Oc1cccc(OC)c1 | Fall in mean arterial blood pressure (Rattus norvegicus [1]): 15 mmHg
22 | 2.2 | CCCS(=O)(=O)Nc1ncnc(OCCOc2ncc(Br)cn2)c1-c1ccc(Br)cc1 | Fall in mean arterial blood pressure (Rattus norvegicus [1]): 25 mmHg
23 | 1.4 | COc1ccc(Cl)c(Oc2c(NS(=O)(=O)NCc3ccccc3)ncnc2OCCOc2ncc(Br)cn2)c1 | Fall in mean arterial blood pressure (Rattus norvegicus [1]): 24 mmHg; Activity (Rattus norvegicus [3]): inactive
24 | 9.9 | CCNS(=O)(=O)Nc1nc(-c2ncccn2)nc(OCCOc2ncc(Br)cn2)c1Oc1ccccc1OC | –
25 | 6.8 | O=S(=O)(NCc1ccccc1)Nc1ncnc(OCCOc2ncc(Br)cn2)c1-c1ccccc1 | –
26 | 4.3 | CCCCS(=O)(=O)Nc1nc(-c2ncccn2)nc(OCCOc2ncc(Br)cn2)c1Oc1ccccc1OC | –
27 | 1.4 | O=S(=O)(NCc1ccccc1)Nc1ncnc(OCCOc2ncc(Br)cn2)c1-c1ccc(Cl)cc1 | Fall in mean arterial blood pressure (Rattus norvegicus [1]): 18 mmHg; Activity (Rattus norvegicus [3]): inactive
28 | 1.9 | COc1ccccc1Oc1c(NS(=O)(=O)NCc2ccccc2)nc(-c2ncccn2)nc1OCCOc1ncc(Br)cn1 | –

Row | IC50 (Endothelin-1 receptor) [nM] | Compound | further results
29 | 4.3 | CN(Cc1ccccc1)S(=O)(=O)Nc1ncnc(OCCOc2ncc(Br)cn2)c1-c1ccc(Br)cc1 | –
30 | 2.8 | COc1ccccc1Oc1c(NS(=O)(=O)CCc2ccccc2)nc(-c2ncccn2)nc1OCCOc1ncc(Cl)cn1 | –
31 | 4.3 | COc1ccccc1Oc1c(NS(=O)(=O)c2ccc(C(C)(C)C)cc2)nc(-c2ncccn2)nc1OCCOc1ncccn1 | –
32 | 1.7 | CCCCNS(=O)(=O)Nc1nc(-c2ncccn2)nc(OCCOc2ncc(Br)cn2)c1Oc1ccccc1OC | –
33 | 8 | COc1ccccc1Oc1c(NS(=O)(=O)CCc2ccccc2)nc(-c2ncccn2)nc1OCCOc1ncccn1 | –
34 | 113 | COc1ccccc1Oc1c(NS(C)(=O)=O)nc(-c2ncccn2)nc1OCCOc1ncc(Br)cn1 | –
35 | 1 | COc1cccc(Oc2c(NS(=O)(=O)NCc3ccccc3)ncnc2OCCOc2ncc(Br)cn2)c1 | Fall in mean arterial blood pressure (Rattus norvegicus [1]): 10 mmHg; Activity (Rattus norvegicus [3]): inactive
36 | 739 | COc1ccccc1Oc1c(NS(C)(=O)=O)nc(-c2ncccn2)nc1OCCOc1ncccn1 | –
37 | 1.5 | COc1ccccc1Oc1c(NS(=O)(=O)c2ccc(C(C)(C)C)cc2)nc(-c2ncccn2)nc1OCCOc1ncc(Br)cn1 | –
38 | 14 | CCS(=O)(=O)Nc1nc(-c2ncccn2)nc(OCCOc2ncc(Br)cn2)c1Oc1ccccc1OC | –
39 | 3.8 | CCCNS(=O)(=O)Nc1nc(-c2ncccn2)nc(OCCOc2ncc(Br)cn2)c1Oc1ccccc1OC | –
40 | 2.8 | O=S(=O)(Nc1ncnc(OCCOc2ncc(Br)cn2)c1-c1ccc(Br)cc1)N1CCOCC1 | –
41 | 2.3 | CCc1ccc(-c2c(NS(=O)(=O)NCc3ccccc3)ncnc2OCCOc2ncc(Br)cn2)cc1 | –
42 | 73 | COc1ccccc1Oc1c(NS(=O)(=O)Cc2ccccc2)nc(-c2ncccn2)nc1OCCOc1ncc(Br)cn1 | –
43 | 1.4 | COc1ccccc1Oc1c(NS(=O)(=O)NCc2ccccc2)nc(N2CCOCC2)nc1OCCOc1ncc(Br)cn1 | –
44 | 9.4 | CCCS(=O)(=O)Nc1nc(-c2ncccn2)nc(OCCOc2ncc(Br)cn2)c1Oc1ccccc1OC | –
45 | 3.6 | CC(C)c1ccc(-c2c(NS(=O)(=O)NCc3ccccc3)ncnc2OCCOc2ncc(Br)cn2)cc1 | –
46 | 3.2 | COc1cnc(OCCOc2nc(-c3ncccn3)nc(NS(=O)(=O)CCc3ccccc3)c2Oc2ccccc2OC)nc1 | –
47 | 20.5 | CC(C)C[C@@H]1NC(=O)[C@@H](C(C)C)NC(=O)[C@@H]2CCCN2C(=O)[C@@H](CC(=O)O)NC(=O)[C@@H](Cc2c[nH]c3ccccc23)NC1=O [BQ-123] (cyclo(L[dW][dD]P[dV])) | –
48 | 6.9 | COCCOc1nc(NS(=O)(=O)NCc2ccccc2)c(Oc2ccccc2OC)c(OCCOc2ncc(Br)cn2)n1 | –
49 | 1.1 | COc1ccccc1Oc1c(NS(=O)(=O)CCc2ccccc2)nc(-c2ncccn2)nc1OCCOc1ncc(SC)cn1 | –
50 | 25.7 | COc1ccccc1Oc1c(NS(=O)(=O)CCc2ccccc2)nc(-c2ncccn2)nc1OCCO | –
51 | 6.7 | COc1ccccc1Oc1c(NS(=O)(=O)CCCc2ccccc2)nc(-c2ncccn2)nc1OCCOc1ncc(Br)cn1 | –
52 | 14 | COc1ccccc1Oc1c(NS(=O)(=O)NCc2ccccc2)nc(C2CC2)nc1OCCOc1ncc(Br)cn1 | –
53 | 7.9 | CNS(=O)(=O)Nc1nc(-c2ncccn2)nc(OCCOc2ncc(Br)cn2)c1Oc1ccccc1OC | –
54 | 40 | COc1nc(NS(=O)(=O)NCc2ccccc2)c(Oc2ccccc2OC)c(OCCOc2ncc(Br)cn2)n1 | –
55 | 0.8 | CCNS(=O)(=O)Nc1ncnc(OCCOc2ncc(Br)cn2)c1-c1ccc(Br)cc1 | Fall in mean arterial blood pressure (Rattus norvegicus [1]): 20 mmHg

Row | Compound | IC50 (Endothelin-1 receptor) [nM] | further results
56 | CC[C@H](C)[C@H](NC(=O)[C@@H](NC(=O)[C@H](CC(=O)O)NC(=O)[C@H](CCC(N)=O)NC(=O)[C@H](Cc1cnc[nH]1)NC(=O)[C@@H]1CSSC[C@H](N)C(=O)N[C@@H]([C@@H](C)O)C(=O)N[C@H]2CSSC[C@H](NC(=O)[C@H](CCC(=O)O)NC(=O)[C@H](CCC(=O)O)NC(=O)[C@H](CC(=O)O)NC(=O)[C@H]([C@@H](C)O)NC(=O)[C@H](CCSC)NC(=O)[C@H](CC(=O)O)NC(=O)[C@H](CC(N)=O)NC2=O)C(=O)N[C@@H](CC(C)C)C(=O)N[C@@H](CC(N)=O)C(=O)N[C@@H](Cc2ccccc2)C(=O)N1)C(C)C)C(=O)N[C@@H](Cc1c[nH]c2ccccc12)C(=O)O [SARAFOTOXIN 6C] | > 100 | –
